# Data published in ChEMBL document CHEMBL5532721, “Novel KRAS Inhibitors for Treating Non-Small-Cell Lung Cancer” (ACS Med Chem Lett, 2024).
# Columns and labels:
# [1] = Inhibition of recombinant GMPPNP-loaded KRAS G12D mutant/recombinant GST-tagged RAF1 RBD (unknown origin) interaction preincubated for 20 mins followed by RAF1 RBD addition and measured after 3 hrs by HTRF assay; design: species or system Homo sapiens
# [2] = Inhibition of recombinant GDP-loaded KRAS G12D mutant/recombinant SOS (unknown origin) interaction preincubated for 20 mins followed by SOS addition and measured after 30 mins by HTRF assay; design: species or system Homo sapiens
IC50 [1] [nM],IC50 [2] [nM],SMILES
3,5,C#Cc1c(F)ccc2cc(O)cc(-c3ncc4c(N5CCOCC(CO)C5)nc(OC[C@]56CCC[C@H]5N(C)CCC6)nc4c3F)c12 (some centres not stated)
6,2,C#Cc1c(F)ccc2cc(O)cc(-c3ncc4c(N5CCCOCC5)nc(OC[C@]56CCC[C@H]5N(CC)CCC6)nc4c3F)c12
3,6,C#Cc1c(F)ccc2cc(O)cc(-c3ccc4c(N5C[C@@H]6C[C@H]5C(=O)N6)nc(OC[C@]56CCC[C@H]5N(C)CCC6)nc4c3F)c12
2,2,C#Cc1c(F)ccc2cc(O)cc(-c3ncc4c(N5CCOCC(CC#N)C5)nc(OC[C@]56CCC[C@H]5N(C)CCC6)nc4c3F)c12 (some centres not stated)
2,2,C#Cc1c(F)ccc2cc(O)cc(-c3ncc4c(N5CCCC(C#N)C5)nc(OC[C@@]56CCCN5C[C@H](F)C6)nc4c3F)c12 (some centres not stated)
3,2,C#Cc1c(F)ccc2cc(O)cc(-c3ncc4c(N5CCCC(O)(C(F)(F)F)C5)nc(OC[C@]56CCC[C@H]5N(C)CCC6)nc4c3F)c12 (some centres not stated)
